Measurements: US20250092056A1, “URACIL DERIVATIVES HAVING VIRUS REPLICATION INHIBITORY ACTIVITY AND PHARMACEUTICAL COMPOSITION COMPRISING THE SAME” (Shionogi & Co., Ltd., priority 2022, published 2025)
Where two headings read alike, the source gives them in different places.

How the values were obtained:
SARS-CoV-2 = assay: Cytopathic effect (CPE) suppression effect confirmation test using HEK293T/ACE2-TMPRSS2 cells; assay type: cell-based; details: Severe acute respiratory syndrome coronavirus 2, HEK-293T
[1] = target: Recombinant SARS-CoV-2 3CL Protease (Severe acute respiratory syndrome coronavirus 2 (2019-nCoV) (SARS-CoV-2), UniProt P0DTD1); assay: biochemical; assay type: biochemical; details: 50% SARS-CoV-2 3CL protease inhibitory concentration; read-out: IC50
[2] = 50% SARS-CoV-2 infected cell death inhibitory concentration, HEK293T/ACE2-TMPRSS2 cells, read-out: EC50
[3] = 72 h, read-out: EC50 (50% SARS-CoV-2 infected cell death inhibitory concentration), class, HEK293T/ACE2-TMPRSS2 cells, CPE suppression, CellTiter-Glo 2.0 after 3 days culture
[4] = 72 h, HEK293T/ACE2-TMPRSS2 cells, CPE suppression, CellTiter-Glo 2.0 after 3 days culture, read-out: EC50 (50% SARS-CoV-2 infected cell death inhibitory concentration), class

SMILES	EC50 (SARS-CoV-2; [2])	IC50 [1]	EC50 (SARS-CoV-2; [3])	EC50 (SARS-CoV-2; 72 h, read-out: EC50 (50% SARS-CoV-2 infected cell death inhibitory concentration), HEK293T/ACE2-TMPRSS2 cells, CPE suppression, CellTiter-Glo 2.0 after 3 days culture)	EC50 (SARS-CoV-2; [4])
N#CCn1c(N2CCC(C(F)F)CC2)c(-c2ccc(F)c(Cl)c2)c(=O)n(-c2cncc(OCF)n2)c1=O [Compound I-422]	< 100 nM	< 10 nM			
N#CCn1c(-c2nnc(C3CC3)s2)c(-c2ccc(F)c(Cl)c2)c(=O)n(-c2cncc(Cl)c2)c1=O [Compound I-359]	< 100 nM	< 10 nM			
Cc1coc(-c2c(-c3ccc(F)c(Cl)c3)c(=O)n(-c3cncc(Cl)c3)c(=O)n2CC#N)n1 [Compound I-360]	< 100 nM	< 10 nM			
C[C@@H](C#N)n1c(N2CC[C@](O)(C(F)F)C2)c(-c2ccc(F)c(Cl)c2)c(=O)n(-c2cncc(Cl)c2)c1=O (single isomer, unassigned) [Compound I-431]	< 100 nM	< 10 nM			
CN1CCN(c2c(-c3ccc(F)c(Cl)c3)c(=O)n(-c3cncc(Cl)c3)c(=O)n2CC#N)CC1=O [Compound I-068]		< 10 nM	< 100 nM		
Cc1cncc(-n2c(=O)c(-c3ccc(F)c(Cl)c3)c(N3CC4(CCOC4)C3)n(CC#N)c2=O)n1 [Compound I-192]		< 10 nM	< 100 nM		
CN(C)c1cnnc(-n2c(=O)c(-c3ccc(F)c(Cl)c3)c(N3CC4(C3)CC(F)(F)C4)n(CC#N)c2=O)c1 [Compound I-219]	100 to 1000 nM	10 to 100 nM			
Cc1cncc(-n2c(=O)c(-c3ccc(F)c(Cl)c3)c(N(C)Cc3ccccc3)n(CC#N)c2=O)c1 [Compound I-025]		< 10 nM	< 100 nM		
N#CCn1c(N2CC3(C2)CC(F)(F)C3)c(-c2ccc(F)c(Cl)c2)c(=O)n(-c2cncc(C#N)c2)c1=O [Compound I-247]	< 100 nM	< 10 nM			
CCOC1CN(c2c(-c3ccc(F)c(Cl)c3)c(=O)n(-c3cncc(C(F)F)n3)c(=O)n2CC#N)C1 [Compound I-418]	< 100 nM	< 10 nM			
Cc1cc(-n2c(=O)c(-c3ccc(F)c(Cl)c3)c(N3CC4(C3)CC(F)(F)C4)n(CC#N)c2=O)[nH]c(=O)c1 [Compound I-221]	1000 to 5000 nM	> 100 nM			
N#CCn1c(N2CC(O)(c3ncccn3)C2)c(-c2ccc(F)c(Cl)c2)c(=O)n(-c2cncc(C(F)(F)F)c2)c1=O [Compound I-261]		18 nM		34.5 nM	
N#CCn1c(N2CC3(C2)CC(F)(F)C3)c(-c2cncc(Cl)c2)c(=O)n(-c2cncc(Cl)c2)c1=O [Compound I-258]	< 100 nM	< 10 nM			
CC(C)(O)CCc1c(-c2ccc(F)c(Cl)c2)c(=O)n(-c2cncc(Cl)c2)c(=O)n1CC#N [Compound I-306]	< 100 nM	< 10 nM			
Cc1cncc(-n2c(=O)c(-c3ccc(F)c(Cl)c3)c(C3=CC4(CCOCC4)C3)n(CC#N)c2=O)c1 [Compound I-297]	< 100 nM	< 10 nM			
N#CCn1c(N2CC(OC(F)F)C2)c(-c2ccc(F)c(Cl)c2)c(=O)n(-c2cncc(Cl)c2)c1=O [Compound I-298]	< 100 nM	< 10 nM			
N#CCn1c(N2CC3(CCOC3)C2)c(Cc2cc(F)c(F)c(F)c2)c(=O)n(-c2cnc3cc(F)ccn23)c1=O [Compound I-145]		10 to 100 nM			100 to 1000 nM
N#CCn1c(N2CC(F)(C3CC3)C2)c(-c2ccc(F)c(Cl)c2)c(=O)n(-c2cncc(F)c2)c1=O [Compound I-300]	< 100 nM	< 10 nM			
Cn1ccc(-c2c(-c3ccc(F)c(Cl)c3)c(=O)n(-c3cncc(Cl)c3)c(=O)n2CC#N)n1 [Compound I-302]	< 100 nM	< 10 nM			
N#CCn1cc(-c2ccc(F)c(Cl)c2)c(=O)n(-c2cncc(Cl)c2)c1=O [Compound I-281]	< 100 nM	10 to 100 nM			
Cc1cncc(-n2c(=O)c(-c3cccc4ccccc34)c(N3Cc4cn[nH]c4C3)n(CC#N)c2=O)c1 [Compound I-016]		< 10 nM	< 100 nM		
N#CCn1c(Cl)c(-c2ccc(F)c(Cl)c2)c(=O)n(-c2cncc(Cl)c2)c1=O [Compound I-055]		10 to 100 nM			100 to 1000 nM
N#CCn1c(N2CC[C@@H](C(=O)C3CC(F)(F)C3)C2)c(-c2ccc(F)c(Cl)c2)c(=O)n(-c2cncc(Cl)c2)c1=O [Compound I-236]	< 100 nM	< 10 nM			
Cc1c(-c2ccc(F)c(Cl)c2)c(=O)n(-c2cncc(Cl)c2)c(=O)n1CC(=O)CO [Compound I-443]	100 to 1000 nM	> 100 nM			
N#CCn1c(N2CC(O)(c3ncccn3)C2)c(-c2ccc(F)c(C(F)F)c2)c(=O)n(-c2cncc(C#N)c2)c1=O [Compound I-439]	< 100 nM	< 10 nM			
Cc1cncc(-n2c(=O)c(-c3ccc(F)c(Cl)c3)c(-c3nc4ccccc4o3)n(CC#N)c2=O)c1 [Compound I-132]		< 10 nM	< 100 nM		
